Assay results as given in patent publication US4950686A, “Anti-mycoplasma agent” (Shionogi & Co., Ltd., priority 1986, dated 1990).
≈ marks a conversion by molar mass, not a printed value. Counter-ions that a name gives are not always drawn. Like-named read-outs stand apart in the source and are kept apart here. One block for each compound: values may come before it.

What was measured:
[1] = system: Mycoplasma gallisepticum MR-1 (wild strain, tylosin-resistant); assay: Anti-mycoplasma activity in vitro (MIC, broth dilution), strain MR-1; type: cell-based; conditions: Mg MR-1, 37° C., 7 days
Experimental: (§1) (1) Anti-mycoplasma activity test in vitro
(§2) MIC values of each of Tropolones were measured on the following strains according to the following method.
(§3) (a) Mycoplasma gallisepticum
MR-1 (wild strain, tylosin-resistant)
(§4) Medium: Chick PPLO broth supplemented with 20% equine serum (Eiken Kagaku Co., Ltd.)
(§5) Method: Broth dilution method
(§6) Inoculum: Culture incubated at 37° C. for 24-48 hr which is diluted with broth to 10^6 CCU/ml immediately before the use.
(§7) To 1.6 ml of the broth is added 0.2 ml of an agent which has been subjected to 2-fold dilution and then added 0.2 ml of inoculum, which is incubated at 37° C. for 7 days.

[2] = system: Mycoplasma gallisepticum S6 (standard strain); assay: Mycoplasma gallisepticum air-sac infection method in chicken, strain S6; type: in vivo, Mycoplasma gallisepticum; SPF chicken (white leghorn)
Experimental: (§8) (2) Test of Effectiveness Mycoplasma gallisepticum air-sac infection method
(§9) Inoculation: To the right air-sac of 9 days old SPF chicken (a white leghorn) which has abstained from water and feed one day before is inoculated 0.20-0.25 ml/chicken of fresh mycoplasma culture incubated for 24-48 hr and diluted with broth (usually 100 times). The concentration in Table 2 is shown in a unit of mg/ml.
(§10) Medium: Chick PPLO broth supplemented with 15% equine serum (Eiken Kagaku Co., Ltd.)
(§11) Administration: A compound of this invention dissolved or suspended in the following solution is orally and forcibly administered once by a cannula immediately after the infection.
(§12) Anatomization and Isolation of Microorganism: The chickens are anatomized 5 days after the infection, and the right and left air sacs are investigated whether they are attacked with a disease or not. The change caused by the disease is represented in four degrees; -: no change, +: slight, ++: medium and +++: serious. Microorganism is isolated from the right and left air-sacs and the trachea by using a sterilized applicator.
(§13) Judgement: Judgement is done through an index of an air-sac disease and an index of a microorganism-isolation.
(§14) Index of an air-sac-disease: First, indexes in the right and left air-sacs are separately calculated according to the following formula;
(§15) {degree of disease (0-3)×chickens}/anatomized chickens
(§16) and the index is calculated by the following formula;
(§17) (index of right air-sac)×1+(index of left air-sac)×2
(§18) Index of a microorganism isolation:
(§19) P: chickens from the right air-sac of which microorganism is isolated,
(§20) Q: chickens from the trachea of which microorganism is isolated,
(§21) R: chickens from the left air-sac of which microorganism is isolated, and
(§22) S: chickens investigated.

[3] = Acute toxicity test in chickens; type: in vivo, SPF chickens of layer type; conditions: 400 mg/kg or 200 mg/kg once oral, 2 weeks; for increase of weight: vs control group
Experimental: Acute toxicity tests on tropolone L-lysine salt and O-acetyltropolone were performed according to the following method.
The tests had been done on 15 days old SPF chickens of layer type (5 males and 5 females) for 2 weeks. The above two compounds suspended in 5% gum arabic are orally and forcibly administered once at a dose of 400 mg/kg or 200 mg/kg. To a control group is administered 5% gum arabic.

[4] = system: Mycoplasma gallisepticum T-7-T (wild strain, tylosin-resistant); assay: Mycoplasma gallisepticum air-sac infection method in chicken, strain T-7-T;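 for Index of Isolation: index = (P×1 + Q×2 + R×3)/S with range 0 to 6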; type: in vivo, Mycoplasma gallisepticum; SPF chicken (white leghorn); conditions: 100 mg/kg × once oral, 10 mg/ml sol. b; for Change of air-sac, left: + (chickens) / Change of air-sac, left: ++ (chickens) / Change of air-sac, left: +++ (chickens) / Change of air-sac, left: - (chickens) / Change of air-sac, right: + (chickens) / Change of air-sac, right: ++ (chickens) / Change of air-sac, right: +++ (chickens) / Change of air-sac, right: - (chickens) / Isolation, L (left air-sac) / Isolation, R (right air-sac) / Isolation, T (trachea) / Mycoplasma Isolated Chickens: inoculum 10^2; for Index of Isolation: inoculum 10^2, range 0-6.0; for Index of Disease: inoculum 10^2, range 0-9.0
Experimental: as §8
(§23) T-7-T (wild strain, tylosin-resistant)
as §9, §10, §11, §12, §13, §14, §15, §16, §17, §18, §19, §20, §21, §22

[5] = system: Mycoplasma gallisepticum T-7-T (wild strain, tylosin-resistant); assay: Anti-mycoplasma activity in vitro (MIC, broth dilution), strain T-7-T; type: cell-based; conditions: Mg T-7-T, 37° C., 7 days
Experimental: as §1, §2, §3, §23, §4, §5, §6, §7

[6] = system: Mycoplasma gallisepticum S6 (standard strain); assay: Anti-mycoplasma activity in vitro (MIC, broth dilution), strain S6; type: cell-based; conditions: Mg S6, 37° C., 7 days
Experimental: as §1, §2, §3, §4, §5, §6, §7

[7] = system: Mycoplasma hyopneumoniae ST-11 (standard strain); assay: Anti-mycoplasma activity in vitro (MIC, broth dilution), strain ST-11; type: cell-based; conditions: Mh ST-11
Experimental: as §1, §2
(b) Mycoplasma hyopneumoniae
Strain: ST-11 (standard strain)
Medium: 850 ml of Hanks' solution supplemented with 0.5% lactoalbumin, 50 ml of 25% yeast, 100 ml of equine serum and 4-6 ml of 0.5% phenol red (pH 7.4-7.6)
as §5
Inoculum: Culture which is incubated for 3-4 days and diluted 10 times with the broth if color of the broth becomes yellow then. If it needs over 4 days until color of the broth becomes yellow, it is further subcultured. This is diluted 10 times with the broth to give inoculum.
Assay is done in the same manner as in the above (a).

[8] = 100 mg/kg × once oral, 10 mg/ml sol. b, inoculum 1.2 × 10^6
[9] = 100 mg/kg × once oral, 10 mg/ml sol. b, inoculum 1.2 × 10^6, range 0-6.0
[10] = 100 mg/kg × once oral, 10 mg/ml sol. b, inoculum 1.2 × 10^6, range 0-9.0
[11] = 200 mg/kg × once oral, 20 mg/ml sol. b, inoculum 1.18 × 10^6
[12] = Mycoplasmoides gallisepticum, 168 h, read-out: MIC
[13] = 200 mg/kg × once oral, 20 mg/ml sol. c, inoculum 6.3 × 10^4

SMILES: O=c1cccccc1O [Compound 11, Tropolone L-lysine salt]
MIC [1]: 0.78 µg/mL
Change of air-sac, left: + (chickens) [2, 8]: 0
Change of air-sac, left: ++ (chickens) [2, 8]: 0
Change of air-sac, left: +++ (chickens) [2, 8]: 0
Change of air-sac, left: - (chickens) [2, 8]: 8
Change of air-sac, right: + (chickens) [2, 8]: 0
Change of air-sac, right: ++ (chickens) [2, 8]: 0
Change of air-sac, right: +++ (chickens) [2, 8]: 0
Change of air-sac, right: - (chickens) [2, 8]: 8
Isolation, L (left air-sac) [2, 8]: 2
Isolation, R (right air-sac) [2, 8]: 0
Isolation, T (trachea) [2, 8]: 1
Mycoplasma Isolated Chickens [2, 8]: 2
Index of Isolation [2, 9]: 0.54
Index of Disease [2, 10]: 0
Change of air-sac, left: + (chickens) [2, 11]: 0
Change of air-sac, left: ++ (chickens) [2, 11]: 0
Change of air-sac, left: +++ (chickens) [2, 11]: 0
Change of air-sac, left: - (chickens) [2, 11]: 5
Change of air-sac, right: + (chickens) [2, 11]: 0
Change of air-sac, right: ++ (chickens) [2, 11]: 0
Change of air-sac, right: +++ (chickens) [2, 11]: 0
Change of air-sac, right: - (chickens) [2, 11]: 5
Isolation, L (left air-sac) [2, 11]: 0
Isolation, R (right air-sac) [2, 11]: 4
Isolation, T (trachea) [2, 11]: 0
Mycoplasma Isolated Chickens [2, 11]: 4
Index of Isolation ([2]; 200 mg/kg × once oral, 20 mg/ml sol. b, inoculum 1.18 × 10^6, range 0-6.0): 0.8
Index of Disease ([2]; 200 mg/kg × once oral, 20 mg/ml sol. b, inoculum 1.18 × 10^6, range 0-9.0): 0
deaths [3]: none of chickens died
increase of weight [3]: equal to the control group
Change of air-sac, left: + (chickens) [4]: 0
Change of air-sac, left: ++ (chickens) [4]: 0
Change of air-sac, left: +++ (chickens) [4]: 0
Change of air-sac, left: - (chickens) [4]: 8
Change of air-sac, right: + (chickens) [4]: 0
Change of air-sac, right: ++ (chickens) [4]: 0
Change of air-sac, right: +++ (chickens) [4]: 0
Change of air-sac, right: - (chickens) [4]: 8
Isolation, L (left air-sac) [4]: 1
Isolation, R (right air-sac) [4]: 4
Isolation, T (trachea) [4]: 5
Mycoplasma Isolated Chickens [4]: 5
Index of Isolation [4]: 2.90
Index of Disease [4]: 0
MIC [5]: 0.78 µg/mL
MIC [6]: 0.39 µg/mL
MIC [7]: 0.78 µg/mL

SMILES: CC(=O)Oc1cccccc1=O [Compound 13, O-Acetyltropolone]
MIC [1, 12]: 0.78 µg/mL (≈ 4.75 µM)
Change of air-sac, left: + (chickens) [2, 8]: 0
Change of air-sac, left: ++ (chickens) [2, 8]: 0
Change of air-sac, left: +++ (chickens) [2, 8]: 0
Change of air-sac, left: - (chickens) [2, 8]: 8
Change of air-sac, right: + (chickens) [2, 8]: 1
Change of air-sac, right: ++ (chickens) [2, 8]: 0
Change of air-sac, right: +++ (chickens) [2, 8]: 0
Change of air-sac, right: - (chickens) [2, 8]: 7
Isolation, L (left air-sac) [2, 8]: 2
Isolation, R (right air-sac) [2, 8]: 2
Isolation, T (trachea) [2, 8]: 3
Mycoplasma Isolated Chickens [2, 8]: 3
Index of Isolation [2, 9]: 1.75
Index of Disease [2, 10]: 0.1
Change of air-sac, left: + (chickens) [2, 13]: 0
Change of air-sac, left: ++ (chickens) [2, 13]: 0
Change of air-sac, left: +++ (chickens) [2, 13]: 0
Change of air-sac, left: - (chickens) [2, 13]: 5
Change of air-sac, right: + (chickens) [2, 13]: 0
Change of air-sac, right: ++ (chickens) [2, 13]: 0
Change of air-sac, right: +++ (chickens) [2, 13]: 0
Change of air-sac, right: - (chickens) [2, 13]: 5
Isolation, L (left air-sac) [2, 13]: 0
Isolation, R (right air-sac) [2, 13]: 0
Mycoplasma Isolated Chickens [2, 13]: 0
Index of Disease ([2]; 200 mg/kg × once oral, 20 mg/ml sol. c, inoculum 6.3 × 10^4, range 0-9.0): 0
Index of Isolation ([2]; 200 mg/kg × once oral, 20 mg/ml sol. c, inoculum 6.3 × 10^4, trachea ND, range 0-6.0): 0
deaths [3]: none of chickens died
increase of weight [3]: a little inferior to the control-group
Change of air-sac, left: + (chickens) [4]: 0
Change of air-sac, left: ++ (chickens) [4]: 0
Change of air-sac, left: +++ (chickens) [4]: 0
Change of air-sac, left: - (chickens) [4]: 8
Change of air-sac, right: + (chickens) [4]: 0
Change of air-sac, right: ++ (chickens) [4]: 0
Change of air-sac, right: +++ (chickens) [4]: 0
Change of air-sac, right: - (chickens) [4]: 8
Isolation, L (left air-sac) [4]: 1
Isolation, R (right air-sac) [4]: 1
Isolation, T (trachea) [4]: 2
Mycoplasma Isolated Chickens [4]: 2
Index of Isolation [4]: 0.90
Index of Disease [4]: 0
MIC [5, 12]: 0.78 µg/mL (≈ 4.75 µM)
MIC [6, 12]: 0.39 µg/mL (≈ 2.38 µM)

MIC [1, 12]: 1.56 µg/mL (≈ 7.76 µM)
MIC [5, 12]: 0.78 µg/mL (≈ 3.88 µM)
MIC [6, 12]: 0.39 µg/mL (≈ 1.94 µM)
MIC ([7]; Mesomycoplasma hyopneumoniae, read-out: MIC): 0.2 µg/mL (≈ 0.995 µM)
SMILES: O=c1c(O)ccccc1Br [Compound 24, 7-Bromotropolone]
Change of air-sac, left: + (chickens) [2, 8]: 0
Change of air-sac, left: ++ (chickens) [2, 8]: 0
Change of air-sac, left: +++ (chickens) [2, 8]: 0
Change of air-sac, left: - (chickens) [2, 8]: 8
Change of air-sac, right: + (chickens) [2, 8]: 0
Change of air-sac, right: ++ (chickens) [2, 8]: 0
Change of air-sac, right: +++ (chickens) [2, 8]: 0
Change of air-sac, right: - (chickens) [2, 8]: 8
Isolation, L (left air-sac) [2, 8]: 4
Isolation, R (right air-sac) [2, 8]: 1
Isolation, T (trachea) [2, 8]: 7
Mycoplasma Isolated Chickens [2, 8]: 7
Index of Isolation [2, 9]: 2.70
Index of Disease [2, 10]: 0
Change of air-sac, left: + (chickens) [4]: 0
Change of air-sac, left: ++ (chickens) [4]: 0
Change of air-sac, left: +++ (chickens) [4]: 0
Change of air-sac, left: - (chickens) [4]: 8
Change of air-sac, right: + (chickens) [4]: 0
Change of air-sac, right: ++ (chickens) [4]: 0
Change of air-sac, right: +++ (chickens) [4]: 0
Change of air-sac, right: - (chickens) [4]: 8
Isolation, L (left air-sac) [4]: 3
Isolation, R (right air-sac) [4]: 3
Isolation, T (trachea) [4]: 5
Mycoplasma Isolated Chickens [4]: 5
Index of Isolation [4]: 2.80
Index of Disease [4]: 0
